Target: human P2X3 receptor (Homo sapiens (Human), UniProt P56373)
Assay: Evaluation of human P2X3 receptor inhibitory activity (Test Example 1-1, FDSS 3000, 96-well, 50 nM ATP)
Type: cell-based
Settings: human P2X3 receptor in C6BU-1 cells; Test Example 1-1 (compounds I-001 to I-300)
In short: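 C6BU-1 cells stably expressing human P2X3, loaded with 4 μM Fluo-3-AM (pH 7.5), preincubated 5 min with compound before 50 nM ATP challenge; fluorescence followed 4 min on FDSS 3000. IC50 derived from peak/baseline fluorescence ratio, no-compound as 0% and buffer-instead-of-ATP as 100% inhibition.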

Chain of human P2X3 receptor (P56373 whole entry): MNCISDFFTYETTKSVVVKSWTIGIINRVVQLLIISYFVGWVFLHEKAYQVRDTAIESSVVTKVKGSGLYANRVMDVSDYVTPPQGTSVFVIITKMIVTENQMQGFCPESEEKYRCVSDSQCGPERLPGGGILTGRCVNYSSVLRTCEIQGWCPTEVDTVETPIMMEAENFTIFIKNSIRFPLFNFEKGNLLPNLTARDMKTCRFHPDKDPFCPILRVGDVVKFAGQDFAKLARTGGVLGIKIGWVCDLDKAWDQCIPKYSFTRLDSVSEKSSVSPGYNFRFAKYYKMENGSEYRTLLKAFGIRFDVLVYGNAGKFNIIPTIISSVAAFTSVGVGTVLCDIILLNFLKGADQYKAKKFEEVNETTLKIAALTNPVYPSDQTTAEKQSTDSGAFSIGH

Structure (SMILES)	IC50 [nM]
CCn1c(=O)cc(Nc2ccc(Oc3cccc(C(=O)O)n3)cc2)n(Cc2ccc(Cl)cc2)c1=O [Compound I-040]	3
CCOC(=O)c1cnc(Oc2ccc(Nc3ncc(C(=O)OCC)c(=O)n3Cc3ccc(Cl)cc3)cc2)s1 [Compound I-056]	13
CCn1c(=O)cc(Nc2ccc(Oc3cccc(C(=O)O)c3)cc2)n(Cc2ccc(Cl)cc2)c1=O [Compound I-023, 1-(4-chlorobenzyl)-3-ethyl-6-[4-(3-hydroxycarbonylphenoxy)phenylamino]pyrimidin-2,4(1H,3H)-dione]	3
CCCn1c(=O)cc(Nc2ccc(Oc3cccc(C#N)n3)c(C)n2)n(Cc2ccc(Cl)cc2)c1=O [Compound I-187]	4
CCOC(=O)c1c[nH]/c(=N\c2ccc(Oc3ccc(F)cn3)c(F)c2)n(Cc2ccc(Cl)cc2)c1=O [Compound I-206]	48
N#Cc1cnc(Oc2ccc(/N=c3\[nH]cc(NC(=O)C4CCOCC4)c(=O)n3Cc3ccc(Cl)cc3)cc2)cn1 [Compound I-143]	2
NC(=O)c1c[nH]/c(=N\c2ccc(Oc3ccon3)cc2)n(Cc2ccc(Cl)cc2)c1=O [Compound I-100]	32
COC(=O)[C@@H](C)Cn1c(=O)cc(Nc2ccc(Oc3ccccc3)cc2)n(Cc2ccc(Cl)cc2)c1=O [Compound I-113]	187
CCC(=O)Nc1c[nH]/c(=N\c2ccc(Oc3ccc(CO)nn3)cc2)n(Cc2ccc(Cl)cc2)c1=O [Compound I-089]	17
O=C(Nc1cnc(Nc2ccc(Oc3cccc(F)n3)cc2)n(Cc2ccc(Cl)cc2)c1=O)C1CCOCC1 [Compound I-134]	2
Cc1cnc(-c2c[nH]/c(=N\c3ccc(Oc4cccc(C(=O)O)n4)cc3)n(Cc3ccc(Cl)cc3)c2=O)o1 [Compound I-290, 1-(4-chlorobenzyl)-2-[4-(6-hydroxycarbonyl-2-pyridyloxy)phenylamino]-5-(5-methyloxazol-2-yl)pyrimidin-6(1H)-one]	4
CCCn1c(=O)cc(Nc2ccc(Oc3cccc(C(=O)OC)c3)cc2)n(Cc2ccc(Cl)cc2)c1=O [Compound I-168]	159
CCn1c(=O)cc(Nc2ccc(Oc3ccc(C(=O)OC)nn3)cc2)n(Cc2ccc(Cl)cc2)c1=O [Compound I-173]	4
O=C(O)c1c[nH]/c(=N\c2ccc(Oc3ncccc3F)cc2)n(Cc2ccc(Cl)cc2)c1=O [Compound I-108]	440
CCC(=O)Nc1c[nH]/c(=N\c2ccc(Oc3ccnc(C(=O)O)c3)cc2)n(Cc2ccc(Cl)cn2)c1=O [Compound I-289]	24
CCc1oc2ccc(Nc3ncc(C(=O)NC4CCOCC4)c(=O)n3Cc3ccc(Cl)cc3)cc2c1C [Compound I-019, 1-(4-chlorobenzyl)-2-(2-ethyl-3-methylbenzofuran-5-ylamino)-5-(tetrahydro-2H-pyran-4-ylcarbamoyl)pyrimidin-6(1H)-one]	135
C[C@@H](Cn1c(=O)cc(Nc2ccc(Oc3cccc(C#N)n3)c(F)c2)n(Cc2ccc(Cl)cc2)c1=O)C(=O)O [Compound I-127]	3
N#Cc1cccc(Oc2ccc(Nc3cc(=O)[nH]c(=O)n3Cc3ccc(Cl)cc3)cc2)n1 [Compound I-064]	36
O=c1c(-c2cccnc2O)c[nH]/c(=N\c2ccc(Oc3ccon3)cc2)n1Cc1ccc(Cl)cc1 [Compound I-194]	658
CCn1c(=O)cc(Nc2ccc(Oc3cccc(C(=O)O)c3)c(C)n2)n(Cc2ccc(Cl)cc2)c1=O [Compound I-258]	27
CC(c1ccc(Cl)cc1)n1cc(C(=O)NC2CCOCC2)c(=O)nc1Nc1ccc(Oc2cccc(F)n2)cc1 (stereo not drawn) [Compound I-270]	175

Structure (SMILES)	IC50 [nM]
CCn1c(=O)cc(Nc2ccc(Oc3cccc(C(N)=O)c3)c(C)n2)n(Cc2ccc(Cl)cc2)c1=O [Compound I-260]	36
N#C/N=C(/Nc1c[nH]/c(=N\c2ccc(Oc3ccon3)cc2)n(Cc2ccc(Cl)cc2)c1=O)Oc1ccccc1 [Compound I-237]	219
O=C(NC1CCOCC1)c1cn(Cc2ccc(Cl)cc2)c(Nc2ccc(Oc3ncccc3F)cc2)nc1=O [Compound I-155]	17
CCn1c(=O)cc(Nc2cnc(Oc3cccc(C(=O)O)c3)cn2)n(Cc2ccc(Cl)cc2)c1=O [Compound I-083]	168
CCCn1c(=O)cc(Nc2ccc(Oc3cccc(C(=O)O)c3)c(C)n2)n(Cc2ccc(Cl)cc2)c1=O [Compound I-259]	16
Cc1cnc(-c2c[nH]/c(=N\c3ccc(Oc4cccc(C#N)n4)cc3)n(Cc3ccc(Cl)cc3)c2=O)o1 [Compound I-278, 1-(4-chlorobenzyl)-2-[4-(6-cyano-2-pyridyloxy)phenylamino]-5-(5-methyloxazol-2-yl)pyrimidin-6(1H)-one]	20
O=C(NCCO)c1c[nH]/c(=N\c2ccc(Oc3ccon3)cc2)n(Cc2ccc(Cl)cc2)c1=O [Compound I-101]	71
CCc1oc2ccc(Nc3ncc(NC(C)=O)c(=O)n3Cc3ccc(Cl)cc3)cc2c1C [Compound I-071]	171
Cc1nc(Nc2cc(=O)n(C[C@H](C)C(=O)O)c(=O)n2Cc2ccc(Cl)cc2)ccc1Oc1cccc(F)c1 [Compound I-245]	58
CC(C)(C)OC(=O)N1CCC(C(=O)Nc2c[nH]/c(=N\c3ccc(Oc4ccon4)cc3)n(Cc3ccc(Cl)cc3)c2=O)CC1 [Compound I-182]	52
CCc1oc2ccc(Nc3ncc(NC(=O)C4CCOCC4)c(=O)n3Cc3cccc(Cl)c3)cc2c1C [Compound I-078]	20
CCn1c(=O)cc(Nc2ccc(Oc3cccc(C(N)=O)n3)c(C)c2)n(Cc2ccc(Cl)cc2)c1=O [Compound I-027]	4
CCc1oc2ccc(/N=c3\[nH]cc(C=NOC)c(=O)n3Cc3ccc(Cl)cc3)cc2c1C [Compound I-058]	223
CCOC(=O)c1cnc(Nc2ccc(Oc3cccc(C(=O)O)n3)cc2)n(Cc2ccc(Cl)cc2)c1=O [Compound I-055]	2
O=c1c(-c2ccccn2)c[nH]/c(=N\c2ccc(Oc3ccon3)cc2)n1Cc1ccc(Cl)cc1 [Compound I-272]	211
CCC(=O)Nc1c[nH]/c(=N\c2ccc(Oc3cnc(C#N)cn3)cc2)n(Cc2ccc(Cl)cc2)c1=O [Compound I-138]	4
C[C@@H](Cn1c(=O)cc(Nc2ccc(Oc3ncccc3F)cc2)n(Cc2ccc(Cl)cc2)c1=O)C(=O)O [Compound I-119]	8
CCc1c[nH]/c(=N\c2ccc(Oc3ncc(C(=O)O)s3)cc2)n(Cc2ccc(Cl)cc2)c1=O [Compound I-087]	29
O=C(Nc1cnc(Nc2ccc(Oc3nccs3)cc2)n(Cc2ccc(Cl)cc2)c1=O)C1CCOCC1 [Compound I-131]	2
O=C(Nc1cnc(Nc2ccc3nc(C(F)F)sc3c2)n(Cc2ccc(Cl)cc2)c1=O)C1CCOCC1 [Compound I-300]	15
COc1cccc(Oc2ccc(/N=c3\[nH]cc(C(N)=O)c(=O)n3Cc3ccc(Cl)cc3)cc2C)n1 [Compound I-140]	99

Structure (SMILES)	IC50 [nM]
CCOC(=O)c1cccc(Oc2ccc(Nc3cc(=O)n(CC)c(=O)n3Cc3ccc(Cl)cc3)nc2)c1 [Compound I-044]	103
CCC(=O)Nc1c[nH]/c(=N\c2ccc(Oc3cccc(C(N)=O)n3)cc2)n(Cc2ccc(Cl)cc2)c1=O [Compound I-093]	9
CCC(=O)Nc1c[nH]/c(=N\c2ccc(Oc3cncc(C)n3)cc2)n(Cc2ccc(Cl)cc2)c1=O [Compound I-145]	40
CCC(=O)Nc1c[nH]/c(=N\c2ccc(Oc3cccc(C(=O)O)n3)cc2)n(Cc2ccc(Cl)cc2)c1=O [Compound I-104]	3
CCOC(=O)c1sc(Oc2ccc(Nc3cc(=O)n(CC)c(=O)n3Cc3ccc(Cl)cc3)cc2)nc1C [Compound I-036]	22
CCC(=O)N(C)c1c[nH]/c(=N\c2ccc(Oc3cccc(C#N)n3)cc2)n(Cc2ccc(Cl)cc2)c1=O [Compound I-198]	12
NC(=O)c1c[nH]/c(=N\c2ccc(Oc3ccc(F)cn3)c(F)c2)n(Cc2ccc(Cl)cc2)c1=O [Compound I-208]	31
CCc1c[nH]/c(=N\c2ccc(Oc3cccc(C#N)n3)c(C)c2)n(Cc2ccc(Cl)cc2)c1=O [Compound I-130]	32
N#Cc1cccc(Oc2ccc(Nc3nc(=O)c(C(=O)NC4CCOCC4)cn3Cc3ccc(Cl)cc3)cc2)n1 [Compound I-216]	6
O=C(O)c1cccc(Oc2ccc(Nc3ncc(C(=O)O)c(=O)n3Cc3ccc(Cl)cc3)cc2)n1 [Compound I-050]	67
CC(=O)Nc1cnc(Nc2ccc(Oc3ccon3)cc2)n(Cc2ccc(Cl)cc2)c1=O [Compound I-065]	99
O=c1c(-c2ccc(O)nc2)c[nH]/c(=N\c2ccc(Oc3ccon3)cc2)n1Cc1ccc(Cl)cc1 [Compound I-205]	153
CCc1oc2ccc(/N=c3\[nH]cc(CC(=O)O)c(=O)n3Cc3ccc(Cl)cc3)cc2c1C [Compound I-074]	828
N#Cc1ccc(Oc2ccc(Nc3nc(=O)c(C(=O)NC4CCOCC4)cn3Cc3ccc(Cl)cc3)cc2)nc1 [Compound I-228]	10
O=C(NC1CCOCC1)c1cn(Cc2ccc(F)cc2)c(Nc2ccc(Oc3cccc(F)n3)cc2)nc1=O [Compound I-281]	41
O=C(O)c1c[nH]/c(=N\c2ccc(Oc3ccc(F)cn3)c(F)c2)n(Cc2ccc(Cl)cc2)c1=O [Compound I-207]	252
O=C(NC1CCOCC1)c1c[nH]/c(=N\c2ccc(Oc3cccc(F)n3)cc2)n(Cc2ccc(Cl)cc2)c1=O [Compound I-042]	14
CCn1c(=O)cc(Nc2ccc(Oc3cccc(C(N)=O)n3)c(F)c2)n(Cc2ccc(Cl)cc2)c1=O [Compound I-026]	3
CNC(=O)c1c[nH]/c(=N\c2ccc(Oc3nc(C)ns3)cc2)n(Cc2ccc(Cl)cc2)c1=O [Compound I-257]	41
O=C(Nc1c[nH]/c(=N\c2ccc(Oc3ccon3)cc2)n(Cc2ccc(F)cc2)c1=O)C1CCOCC1 [Compound I-123]	24
O=C(O)c1c[nH]/c(=N\c2ccc(Oc3cccc(F)n3)cc2)n(Cc2ccc(Cl)cc2)c1=O [Compound I-029]	236
